{"source": "ChEMBL document CHEMBL1955725", "about": "“Structure-guided lead optimization of triazolopyrimidine-ring substituents identifies potent Plasmodium falciparum dihydroorotate dehydrogenase inhibitors with clinical candidate potential” (J Med Chem, 2011)"}
{"system": "Plasmodium falciparum", "experiment": "Antimalarial activity against Plasmodium falciparum 3D7 by [3H]hypoxanthine incorporation assay in presence of human serum", "assay_type": "functional, organism-based", "settings": "not given", "units": {"EC50": "µM"}}
{"smiles": "Cc1cc(Nc2cccc(Cl)c2)n2nc(S(C)(=O)=O)nc2n1", "EC50": "> 2.5"}
{"smiles": "CSc1nc2nc(C)cc(Nc3cccc(Cl)c3)n2n1", "EC50": 0.15}
{"smiles": "Cc1cc(Nc2ccc(S(F)(F)(F)(F)F)cc2)n2nc(CC3CC3)nc2n1", "EC50": "> 10"}
{"system": "not listed separately", "experiment": "Lipophilicity, log D of the compound at pH 7.4", "assay_type": "physicochemical", "settings": "buffer"}
{"smiles": "Cc1cc(Nc2cccc(Cl)c2)n2ncnc2n1", "logD": 2.4}
{"biological_target": "T1, Dihydroorotate dehydrogenase (Plasmodium falciparum, UniProt Q54A96)", "T1 sequence (Q54A96 whole entry)": "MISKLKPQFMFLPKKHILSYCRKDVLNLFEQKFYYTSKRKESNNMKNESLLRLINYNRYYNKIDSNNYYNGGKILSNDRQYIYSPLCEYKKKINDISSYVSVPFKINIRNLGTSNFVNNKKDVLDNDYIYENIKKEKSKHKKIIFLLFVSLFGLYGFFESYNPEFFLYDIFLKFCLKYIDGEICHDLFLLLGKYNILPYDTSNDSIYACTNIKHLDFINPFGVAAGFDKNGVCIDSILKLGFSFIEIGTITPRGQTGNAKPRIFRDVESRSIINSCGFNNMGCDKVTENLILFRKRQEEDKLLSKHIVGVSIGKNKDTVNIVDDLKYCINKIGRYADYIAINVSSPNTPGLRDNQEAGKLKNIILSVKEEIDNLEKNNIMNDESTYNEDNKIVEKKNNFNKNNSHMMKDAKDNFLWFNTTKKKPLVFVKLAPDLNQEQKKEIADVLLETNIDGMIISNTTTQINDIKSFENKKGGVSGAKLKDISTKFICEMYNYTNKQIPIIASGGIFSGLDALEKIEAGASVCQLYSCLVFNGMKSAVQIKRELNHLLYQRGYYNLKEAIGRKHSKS", "settings": "not given", "units": {"IC50": "µM"}}
{"smiles": "CNCc1nc2nc(C)cc(Nc3cccc(Cl)c3)n2n1", "IC50": "> 10"}
{"smiles": "Cc1cc(Nc2ccc(Cl)cc2)n2nc(CC(C)C)nc2n1", "IC50": "> 10"}
{"smiles": "Cc1cc(Nc2cccc(Cl)c2)n2nc(OCCN(C)C)nc2n1", "IC50": "> 10"}
{"smiles": "Cc1cc(Nc2cccc(Cl)c2)n2nc(CC3CC3)nc2n1", "IC50": "> 10"}
{"smiles": "Cc1cc(Nc2ccc(Cl)cc2)n2nc(CN(C)C)nc2n1", "IC50": "> 10"}
{"smiles": "Cc1cc(Nc2cccc(Cl)c2)n2[nH]c(=O)nc2n1", "IC50": "> 10"}
{"smiles": "Cc1cc(Nc2ccc(Cl)cc2)n2nc(OCCN(C)C)nc2n1", "IC50": "> 10"}
{"smiles": "COCCc1nc2nc(C)cc(Nc3ccc(Cl)cc3)n2n1", "IC50": "> 10"}
{"smiles": "Cc1cc(Nc2cccc(Cl)c2)n2nc(OCCN)nc2n1", "IC50": "> 10"}
{"smiles": "Cc1cc(Nc2cccc(Cl)c2)n2nc(CC(C)C)nc2n1", "IC50": "> 10"}
{"smiles": "Cc1cc(Nc2ccc(C(F)(F)F)cc2)n2nc(OCCN(C)C)nc2n1", "IC50": "> 10"}
{"smiles": "Cc1cc(Nc2ccc(Cl)cc2)n2[nH]c(=O)nc2n1", "IC50": "> 10"}
{"smiles": "Cc1cc(Nc2ccc(C(F)(F)F)cc2)n2nc(OCCN)nc2n1", "IC50": "> 10"}
{"smiles": "CNCCOc1nc2nc(C)cc(Nc3ccc(S(F)(F)(F)(F)F)cc3)n2n1", "IC50": "> 10"}
{"smiles": "Cc1cc(Nc2ccc(S(F)(F)(F)(F)F)cc2)n2nc(CC(C)C)nc2n1", "IC50": "> 10"}
{"smiles": "CNCCOc1nc2nc(C)cc(Nc3ccc(Cl)cc3)n2n1", "IC50": "> 10"}
{"smiles": "Cc1cc(Nc2ccc(Cl)cc2)n2nc(CCN)nc2n1", "IC50": "> 10"}
{"smiles": "Cc1cc(Nc2ccc(C(F)(F)F)cc2)n2nc(CC(C)C)nc2n1", "IC50": 2}
{"smiles": "Cc1cc(Nc2ccc(Cl)cc2)n2nc(CN)nc2n1", "IC50": "> 10"}
{"smiles": "Cc1cc(Nc2ccc(S(F)(F)(F)(F)F)cc2)n2nc(OCCN(C)C)nc2n1", "IC50": "> 10"}
{"smiles": "CNCc1nc2nc(C)cc(Nc3ccc(Cl)cc3)n2n1", "IC50": "> 10"}
{"smiles": "COCc1nc2nc(C)cc(Nc3cccc(Cl)c3)n2n1", "IC50": 1.7}
{"smiles": "Cc1cc(Nc2cccc(Cl)c2)n2nc(S(C)(=O)=O)nc2n1", "IC50": 0.16}
{"smiles": "Cc1cc(Nc2cccc(Cl)c2)n2nc(CN(C)C)nc2n1", "IC50": "> 10"}
{"smiles": "CNCCOc1nc2nc(C)cc(Nc3ccc(C(F)(F)F)cc3)n2n1", "IC50": "> 10"}
{"smiles": "Cc1cc(Nc2ccc(Cl)cc2)n2nc(CC3CC3)nc2n1", "IC50": 12}
{"smiles": "CNCCOc1nc2nc(C)cc(Nc3cccc(Cl)c3)n2n1", "IC50": "> 10"}
{"smiles": "COCCc1nc2nc(C)cc(Nc3cccc(Cl)c3)n2n1", "IC50": "> 10"}
{"smiles": "Cc1cc(Nc2ccc(Cl)cc2)n2nc(OCCN)nc2n1", "IC50": "> 10"}
{"smiles": "CSc1nc2nc(C)cc(Nc3cccc(Cl)c3)n2n1", "IC50": 0.026}
{"smiles": "Cc1cc(Nc2cccc(Cl)c2)n2nc(CN)nc2n1", "IC50": "> 10"}
{"smiles": "Cc1cc(Nc2ccc(S(F)(F)(F)(F)F)cc2)n2nc(CC3CC3)nc2n1", "IC50": 5.7}
{"smiles": "COCc1nc2nc(C)cc(Nc3ccc(Cl)cc3)n2n1", "IC50": 2.2}
{"smiles": "COCCOc1nc2nc(C)cc(Nc3ccc(Cl)cc3)n2n1", "IC50": "> 10"}
